Assay results from patent US6849612B2, “Oligonucleotide modulation of cell adhesion” (ISIS Pharmaceuticals, Inc., priority 1993, dated 2005).
Strand notation (5' to 3'): a small letter for the sugar, then the base; units joined by * are phosphorothioate-linked, units joined directly phosphodiester-linked; [ ] holds rarer units or linkages, { } end groups; capitals alone tell only the bases. d = 2'-deoxy (DNA)

Tests used:
[1] = system: adherence of HL-60 cells to human umbilical vein endothelial cells; test: Cell adherence assay: DMSO differentiated HL-60 cells to TNF treated HUVEC; format: cell-based
Method: Target cells are grown as a monolayer in a multiwell plate, treated with oligonucleotide followed by cytokine. The adhering cells are then added to the monolayer cells and incubated for 30 to 60 minutes at 37° C. and washed to remove nonadhering cells. Cells adhering to the monolayer may be determined either by directly counting the adhering cells or prelabeling the cells with a radioisotope such as ^51Cr and quantitating the radioactivity associated with the monolayer as described. Dustin and Springer, J. Cell Biol. 1988, 107, 321-331. Antisense oligonucleotides may target either ICAM-1, VCAM-1 or ELAM-1 in the assay.
An example of the effects of antisense oligonucleotides targeting ICAM-1 mRNA on the adherence of DMSO differentiated HL-60 cells to tumor necrosis factor treated human umbilical vein endothelial cells is shown in FIG. 7. Human umbilical vein endothelial cells were grown to 80% confluence in 12 well plates. The cells were treated with 2 μM oligonucleotide diluted in Opti-MEM containing 8 μM DOTMA for 4 hours at 37° C. The medium was removed and replaced with fresh endothelial cell growth medium (EGM-UV) containing 2 μM of the indicated oligonucleotide and incubated 4 hours at 37° C. Tumor necrosis factor, 1 ng/ml, was added to cells as indicated and cells incubated for an additional 19 hours. The cells were washed once with EGM-UV and 1.6×10^6 HL-60 cells differentiated for 4 days with 1.3% DMSO added. The cells were allowed to attach for 1 hour at 37° C. and gently washed 4 times with Dulbecco's phosphate-buffered saline (D-PBS) warmed to 37° C. Adherent cells were detached from the monolayer by addition of 0.25 ml of cold (4EC) phosphate-buffered saline containing 5 mM EDTA and incubated on ice for 5 minutes. The number of cells removed by treatment with EDTA was determined by counting with a hemocytometer. Endothelial cells detached from the monolayer by EDTA treatment could easily be distinguished from HL-60 cells by morphological differences. In the absence of tumor necrosis factor, 3% of the HL-60 cells bound to the endothelial cells. Treatment of the endothelial cell monolayer with 1 ng/ml tumor necrosis factor increased the number of adhering cells to 59% of total cells added (FIG. 7).
Human umbilical vein endothelial (HUVEC) cells were grown and treated with oligonucleotides as in Example 4. Cells were treated with either ISIS 1939, ISIS 1940, or the control oligonucleotide ISIS 1821 for 4 hours, then stimulated with TNF-α for 20 hours. Basal HUVEC minimally bound HL-60 cells, while TNF-stimulated HUVEC bound 19% of the total cells added. Pretreatment of the HUVEC monolayer with 0.3 ìM ISIS 1939 reduced the adherence of HL-60 cells to basal levels, as shown in FIG. 11.

ICAM-1 [2] = test: ELISA screening for ICAM-1 expression in interleukin-1β-stimulated cells (HUVEC and A549); format: cell-based, human; settings: for inhibition of ICAM-1 expression, relative activity in words: interleukin-1β-stimulated cells, two cell lines (HUVEC, A549); for inhibition of ICAM-1 expression after premixing with respective sense strand: premixed/prehybridized at equal molar concentrations with sense strand (ISIS 1575 or ISIS 2115)
ICAM-1 [3] = test: ELISA of ICAM-1 expression in A431 cells; format: cell-based; settings: human epidermal carcinoma A431 cells
Method: (§1) Expression of ICAM-1, VCAM-1 and ELAM-1 on the surface of cells can be quantitated using specific monoclonal antibodies in an ELISA. Cells are grown to confluence in 96 well microtiter plates. The cells are stimulated with either interleukin-1 or tumor necrosis factor for 4 to 8 hours to quantitate ELAM-1 and 8 to 24 hours to quantitate ICAM-1 and VCAM-1. Following the appropriate incubation time with the cytokine, the cells are gently washed three times with a buffered isotonic solution containing calcium and magnesium such as Dulbecco's phosphate buffered saline (D-PBS). The cells are then directly fixed on the microtiter plate with 1 to 2% paraformaldehyde diluted in D-PBS for 20 minutes at 25° C. The cells are washed again with D-PBS three times. Nonspecific binding sites on the microtiter plate are blocked with 2% bovine serum albumin in D-PBS for 1 hour at 37° C. Cells are incubated with the appropriate monoclonal antibody diluted in blocking solution for 1 hour at 37° C. Unbound antibody is removed by washing the cells three times with D-PBS. Antibody bound to the cells is detected by incubation with a 1:1000 dilution of biotinylated goat anti-mouse IgG (Bethesda Research Laboratories, Gaithersburg, Md.) in blocking solution for 1 hour at 37° C. Cells are washed three times with D-PBS and then incubated with a 1:1000 dilution of streptavidin conjugated to β-galactosidase (Bethesda Research Laboratories) for 1 hour at 37° C. The cells are washed three times with D-PBS for 5 minutes each. The amount of β-galactosidase bound to the specific monoclonal antibody is determined by developing the plate in a solution of 3.3 mM chlorophenolred-β-D-galactopyranoside, 50 mM sodium phosphate, 1.5 mM MgCl2; pH=7.2 for 2 to 15 minutes at 37° C. The concentration of the product is determined by measuring the absorbance at 575 nm in an ELISA microtiter plate reader. […]
(§2) Cells grown in 96-well plates were washed three times with Opti-MEM (GIBCO, Grand Island, N.Y.) prewarmed to 37° C. […] ICAM-1 expression was determined as described in Example 1. […]

ICAM-1 [4] = test: ELISA of ICAM-1 expression in primary human keratinocytes; format: cell-based
Method: as §1, §2

Substance	HL-60 cells adhering, % of total cells added ([1]; 2 μM oligonucleotide, HUVEC treated with 1 ng/ml tumor necrosis factor, control 59%) [%]	number of HL-60 cells adhering to the monolayer ([1]; 2 μM oligonucleotide, absence of tumor necrosis factor treatment)	inhibition of ICAM-1 expression, relative activity in words (ICAM-1 [2])	inhibition of ICAM-1 expression after premixing with respective sense strand (ICAM-1 [2])	inhibition of ICAM-1 expression (ICAM-1 [3])	inhibition of ICAM-1 expression (ICAM-1 [4])	adherence of HL-60 cells ([1]; 0.3 μM oligonucleotide, TNF-α stimulated HUVEC (control bound 19%))
ISIS 1570: phosphorothioate, human ICAM-1 AUG Codon (64-81), SEQ ID NO 1, TGGGAGCCATAGCGAGGC (antisense dT*dG*dG*dG*dA*dG*dC*dC*dA*dT*dA*dG*dC*dG*dA*dG*dG*dC)	17	did not change the number of cells adhering	most active	blocked the effects of ISIS 1570	inhibit ICAM-1 expression	inhibit ICAM-1 expression	–
ISIS 1939: P=S, human ICAM-1 3′-Untranslated (1952-1971), SEQ ID NO 15, CCCCCACCACTTCCCCTCTC (antisense dC*dC*dC*dC*dC*dA*dC*dC*dA*dC*dT*dT*dC*dC*dC*dC*dT*dC*dT*dC)	–	–	most active	completely blocked	inhibit ICAM-1 expression	inhibit ICAM-1 expression	basal levels
